Paper PMC3402541, “Guanidylation and Tail Effects in Cationic Antimicrobial Lipopeptoids” (PLoS ONE, 2012)
≈ marks a conversion by molar mass, not a printed value. Where a SMILES comes first, the peptide text is derived from it. [ ]: non-standard residue; d: D form. The star is where a group is joined. Undecanoyl = CCCCCCCCCCC(=O)*; Nlys = NCCCCNCC(=O)O

What was measured:
[1] = test system: S. maltophilia CAN-ICU 62584; type: cell-based, Stenotrophomonas maltophilia; conditions: CAN-ICU 62584, 24 h
Outline: (§1)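 Read-out is the MIC after 24 hr incubation at 37°C in ambient air, determined by CLSI macrobroth dilution in cation-adjusted Mueller-Hinton broth with an inoculum near 5 × 10^5 CFU/mL; tested once.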

[2] = test system: P.aeruginosa CAN-ICU 62308; type: cell-based, Pseudomonas aeruginosa; conditions: CAN-ICU 62308, 24 h
Outline: as §1

P.aeruginosa ATCC 27853 = type: cell-based, Pseudomonas aeruginosa; conditions: ATCC 27853, 24 h
Outline: as §1

E.coli CAN-ICU 61714 = type: cell-based, Escherichia coli; conditions: CAN-ICU 61714, 24 h
Outline: as §1

E.coli CAN-ICU 63074 = type: cell-based, Escherichia coli; conditions: CAN-ICU 63074, 24 h
Outline: as §1

E.coli ATCC 25922 = type: cell-based, Escherichia coli; conditions: ATCC 25922, 24 h
Outline: as §1

MRSA ATCC 33592 = type: cell-based, methicillin-resistant S. aureus; conditions: ATCC 33592, 24 h
Outline: as §1

E. faecium ATCC 27270 = type: cell-based; conditions: ATCC 27270, 24 h
Outline: as §1

E. faecalis ATCC 29212 = type: cell-based, Enterococcus faecalis; conditions: ATCC 29212, 24 h
Outline: as §1

S.aureus ATCC 29213 = type: cell-based, Staphylococcus aureus; conditions: ATCC 29213, 24 h
Outline: as §1

ovine erythrocytes = assay: Haemolytic assay; type: cell-based, sheep; conditions: ovine erythrocytes in Tris buffered saline, 30 minutes, absorbance of supernatant at 540 nm
Outline: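 Washed sheep erythrocytes in Tris-buffered saline exposed to compound (50 μg/mL–1 mg/mL; final 4.08 x 10^8 cells/mL) for 30 min. After centrifugation, supernatant absorbance at 540 nm gave % haemolysis; 0.5% ammonium chloride as positive control.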

[3] = test system: panel of clinically relevant and laboratory reference bacteria; assay: Antimicrobial activity over the whole bacterial panel; type: cell-based; conditions: Gram positive and Gram negative strains, no BSA
Experimental: Antimicrobial activity of the purified lipopeptoids was determined without replication against a panel of clinically relevant and standard reference bacterial strains according to CLSI macrobroth standards. Stock solutions at 512 µg/mL were prepared in water, with DMSO as needed, and testing was performed in glass test tubes using Muller-Hinton broth and bacteria adjusted to 5 × 10^5 CFU/mL. Bacteria were incubated with the lipopeptoid of interest for 24 hr at 37°C prior to reading. […]
After subculturing the relevant bacteria twice from frozen stock, in vitro activities of the antimicrobials were determined by macrobroth dilution methodology in accordance with the Clinical and Laboratory Standards Institute (CLSI) guidelines (3). The MICs were determined using glass test tubes (2 mL/tube) containing doubling antimicrobial dilutions of cation adjusted Mueller-Hinton broth inoculated to achieve a final concentration of approximately 5 x 10^5 CFU/mL, incubated in ambient air for 24 hr prior to reading. […]

MRSE CAN-ICU 61589 = type: cell-based, methicillin-resistant S. epidermidis; conditions: CAN-ICU 61589, 24 h
Outline: as §1

K.pneumoniae ATCC 13883 = type: cell-based, Klebsiella pneumoniae; conditions: ATCC 13883, 24 h
Outline: as §1

MSSE 81388 CANWARD 2008 = type: cell-based, methicillin-susceptible S. epidermidis; conditions: 24 h
Outline: as §1

[4] = test system: A. baumannii CAN-ICU 63169; type: cell-based, Acinetobacter baumannii; conditions: CAN-ICU 63169, 24 h
Outline: as §1

S.pneumoniae ATCC 49619 = type: cell-based, Streptococcus pneumoniae; conditions: ATCC 49619, 24 h
Outline: as §1

[5] = test system: all three strains of E. coli; type: cell-based, Escherichia coli; conditions: 24 h
Outline: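 CLSI macrobroth dilution with doubling dilutions in cation-adjusted Mueller-Hinton broth in glass tubes, inoculum about 5 × 10^5 CFU/mL. Incubation 24 hr at 37°C in ambient air before MIC reading. Single determinations, no replication.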

| SMILES | MIC S. maltophilia [1] | MIC S. maltophilia in the presence of 4% bovine serum albumin [1] | MIC P.aeruginosa [2] | MIC P.aeruginosa in the presence of 4% bovine serum albumin [2] | MIC P.aeruginosa (P.aeruginosa ATCC 27853) | MIC P.aeruginosa in the presence of 4% bovine serum albumin (P.aeruginosa ATCC 27853) | MIC E.coli (E.coli CAN-ICU 61714) | MIC E.coli in the presence of 4% bovine serum albumin (E.coli CAN-ICU 61714) | MIC E.coli (E.coli CAN-ICU 63074) | MIC E.coli in the presence of 4% bovine serum albumin (E.coli CAN-ICU 63074) | MIC E.coli (E.coli ATCC 25922) | MIC E.coli in the presence of 4% bovine serum albumin (E.coli ATCC 25922) | MIC MRSA (MRSA ATCC 33592) | MIC MRSA in the presence of 4% bovine serum albumin (MRSA ATCC 33592) | MIC E. faecium (E. faecium ATCC 27270) | MIC E. faecium in the presence of 4% bovine serum albumin (E. faecium ATCC 27270) | MIC E. faecalis (E. faecalis ATCC 29212) | MIC E. faecalis in the presence of 4% bovine serum albumin (E. faecalis ATCC 29212) | MIC S.aureus (S.aureus ATCC 29213) | MIC S.aureus in the presence of 4% bovine serum albumin (S.aureus ATCC 29213) | further results |
| --- | --- | --- | --- | --- | --- | --- | --- | --- | --- | --- | --- | --- | --- | --- | --- | --- | --- | --- | --- | --- | --- |
| CCCCCCCCCCC(=O)N(CCCCN)CC(=O)N(CCCCN)CC(=O)N(CCCCN)CC(N)=O [C11-NlysNlysNlys] | >512 µg/mL | >512 µg/mL | >512 µg/mL | >512 µg/mL | >512 µg/mL | >512 µg/mL | >512 µg/mL | >512 µg/mL | >512 µg/mL | >512 µg/mL | >512 µg/mL | >512 µg/mL | 512 µg/mL (≈ 899 µM) | >512 µg/mL | 256 µg/mL (≈ 449 µM) | 512 µg/mL | 512 µg/mL (≈ 899 µM) | >512 µg/mL | 512 µg/mL (≈ 899 µM) | >512 µg/mL | Percent haemolysis at 100µg/mL of compound (ovine erythrocytes): 0.67%; Antimicrobial activity over the panel (in words) [3]: broadly inactive; MIC MRSE (MRSE CAN-ICU 61589): 512 µg/mL (≈ 899 µM); MIC MRSE in the presence of 4% bovine serum albumin (MRSE CAN-ICU 61589): 512 µg/mL; MIC K.pneumoniae (K.pneumoniae ATCC 13883): >512 µg/mL; MIC K.pneumoniae in the presence of 4% bovine serum albumin (K.pneumoniae ATCC 13883): >512 µg/mL; MIC MSSE (MSSE 81388 CANWARD 2008): 512 µg/mL (≈ 899 µM); MIC MSSE in the presence of 4% bovine serum albumin (MSSE 81388 CANWARD 2008): 512 µg/mL; MIC A. baumannii [4]: >512 µg/mL; MIC A. baumannii in the presence of 4% bovine serum albumin [4]: >512 µg/mL; MIC S.pneumoniae (S.pneumoniae ATCC 49619): >512 µg/mL; MIC S.pneumoniae in the presence of 4% bovine serum albumin (S.pneumoniae ATCC 49619): >512 µg/mL |
| CCCCCCCCCCCCCCCC(=O)N(CCCCNC(=N)N)CC(=O)NCC(=O)N(CCCCNC(=N)N)CC(N)=O [C16-NhargGNharg] | 64 µg/mL (≈ 98 µM) | >512 µg/mL | 64 µg/mL (≈ 98 µM) | >512 µg/mL | 64 µg/mL (≈ 98 µM) | >512 µg/mL | 16 µg/mL (≈ 24.5 µM) | 512 µg/mL | 16 µg/mL (≈ 24.5 µM) | 512 µg/mL | 16 µg/mL (≈ 24.5 µM) | 512 µg/mL | 8 µg/mL (≈ 12.3 µM) | 512 µg/mL | 16 µg/mL (≈ 24.5 µM) | 512 µg/mL | 16 µg/mL (≈ 24.5 µM) | 512 µg/mL | 8 µg/mL (≈ 12.3 µM) | 512 µg/mL | MIC against all three strains of E. coli [5]: 16 µg/mL; Percent haemolysis at 100µg/mL of compound (ovine erythrocytes): 61.06%; MIC MRSE (MRSE CAN-ICU 61589): 16 µg/mL (≈ 24.5 µM); MIC MRSE in the presence of 4% bovine serum albumin (MRSE CAN-ICU 61589): 512 µg/mL; MIC K.pneumoniae (K.pneumoniae ATCC 13883): 64 µg/mL (≈ 98 µM); MIC K.pneumoniae in the presence of 4% bovine serum albumin (K.pneumoniae ATCC 13883): 512 µg/mL; MIC MSSE (MSSE 81388 CANWARD 2008): 8 µg/mL (≈ 12.3 µM); MIC MSSE in the presence of 4% bovine serum albumin (MSSE 81388 CANWARD 2008): 512 µg/mL; MIC A. baumannii [4]: 128 µg/mL (≈ 196 µM); MIC A. baumannii in the presence of 4% bovine serum albumin [4]: >512 µg/mL; MIC S.pneumoniae (S.pneumoniae ATCC 49619): 128 µg/mL (≈ 196 µM); MIC S.pneumoniae in the presence of 4% bovine serum albumin (S.pneumoniae ATCC 49619): 512 µg/mL |
| CCCCCCCCCCC(=O)N(CCCCN)CC(=O)NCC(=O)N(CCCCN)CC(N)=O [C11-NlysGNlys] (Undecanoyl-[Nlys]-Gly-[Nlys]-NH2) | >512 µg/mL | >512 µg/mL | >512 µg/mL | >512 µg/mL | >512 µg/mL | >512 µg/mL | >512 µg/mL | >512 µg/mL | >512 µg/mL | >512 µg/mL | >512 µg/mL | >512 µg/mL | 512 µg/mL (≈ 1030 µM) | >512 µg/mL | 512 µg/mL (≈ 1030 µM) | >512 µg/mL | 512 µg/mL (≈ 1030 µM) | >512 µg/mL | 512 µg/mL (≈ 1030 µM) | >512 µg/mL | Percent haemolysis at 100µg/mL of compound (ovine erythrocytes): 1.34%; Antimicrobial activity over the panel (in words) [3]: broadly inactive; MIC MRSE (MRSE CAN-ICU 61589): 256 µg/mL (≈ 513 µM); MIC MRSE in the presence of 4% bovine serum albumin (MRSE CAN-ICU 61589): 512 µg/mL; MIC K.pneumoniae (K.pneumoniae ATCC 13883): >512 µg/mL; MIC K.pneumoniae in the presence of 4% bovine serum albumin (K.pneumoniae ATCC 13883): >512 µg/mL; MIC MSSE (MSSE 81388 CANWARD 2008): 256 µg/mL (≈ 513 µM); MIC MSSE in the presence of 4% bovine serum albumin (MSSE 81388 CANWARD 2008): 512 µg/mL; MIC A. baumannii [4]: >512 µg/mL; MIC A. baumannii in the presence of 4% bovine serum albumin [4]: >512 µg/mL; MIC S.pneumoniae (S.pneumoniae ATCC 49619): 512 µg/mL (≈ 1030 µM); MIC S.pneumoniae in the presence of 4% bovine serum albumin (S.pneumoniae ATCC 49619): 512 µg/mL |
